According to US20210196731A1, “COMPOSITIONS AND METHODS FOR TREATING OCULAR INFLAMMATION AND OCULAR SCARRING” (priority 2018, published 2021):
Entries after “also recorded” stand apart in the source; their conditions may differ.

How the values were obtained:
[1] = test system: HTCFs; assay: Collagen Contraction Assay II (dose dependence); assay type: cell-based, human; conditions: gentamicin alone, 100-1000 μg/ml, four days (FIG. 8A)
Protocol: (§1) The cell-collagen solution was pipetted gently to ensure homogenous distribution of HTCFs while avoiding the production of air bubbles, then 500 ul were pipetted into each well of a 24-well tray. Collagen constructs were allowed to polymerize at 37 C for 45 minutes before adding low serum culture media containing DMEM, 2% Fetal Bovine Serum (FBS), 1% penicillin/streptomycin (P/S).
Tension was allowed to build up within the tethered matrix at 37 C and 5% CO2 for 72 hours before a sterile spatula was used to detach each collagen construct from the edges of the culture well. Plates were then immediately scanned on a flat bed laser scanner once per 24 hours for a total of 4 days. The surface area of each collagen construct was measured using ImageJ (NIH) and standardized against the baseline surface area measurement to express changes in area as a percentage of original surface area.
The gentamicin concentrations assessed were delivered in a solution contained DMEM with 2% FBS, 1% penicillin/streptomycin and either 100, 250, 500, 750 or 100 μg/ml gentamicin (Sigma-Aldrich, CAT. NO: G1397). The ASA concentrations assessed were delivered in a solution of DMEM with 2% FBS, 1% penicillin/streptomycin and either 500, 1000 or 1500 μg/ml ASA (Sigma-Aldrich, CAT. NO: A5376). […]

[2] = test system: HTCFs; assay: Collagen Contraction Assay IV (AHGF induced, ASA and gentamicin vs mitomycin C); assay type: cell-based, human; conditions: ASA 1500 μg/ml and/or gentamicin 750 μg/ml; comparator mitomycin C 0.2 mg/ml for 4 minutes
Protocol: as §1
Tension was allowed to build up within the tethered matrix at 37 C and 5% CO2 for 72 hours before a sterile spatula was used to detach each collagen construct from the edges of the culture well. Plates were then immediately scanned on a flat bed laser scanner and then periodically for a total of 4 days. The surface area of each collagen construct was measured using ImageJ (NIH) and standardized against the baseline surface area measurement to express changes in area as a percentage of original surface area.
In this modification of the assay, AHGFs are added to all culture media the collagen constructs are exposed to—from casting of the collagen constructs to the conclusion of contraction. The experimental treatment solutions—all also containing AHGFs—were added 30 minutes prior to detaching the collagen constructs from the culture wells and remained until experimental conclusion. […] DMEM w/2% FBS was added for the remainder of the experiment).

[3] = test system: human Tenon's capsule fibroblasts (HTCFs); assay: Collagen Contraction Assay I (delayed release fibroblast populated collagen lattice); assay type: cell-based; conditions: gentamicin 1000 μg/ml and/or ASA 2000 μg/ml, 15 minutes twice daily, four day assay, vs vehicle control
Protocol: The delayed release fibroblast populated collagen lattice model was used to assess inhibition of gel contraction [58] by ASA and gentamicin. […] Cell free collagen lattices were prepared identically, however to isolate the effects of HTCFs alone on collagen, constructs without HTCFs were cast as a negative control. The cell-collagen solution was pipetted gently to ensure homogenous distribution of HTCFs while avoiding the production of air bubbles, then 500 ul were pipetted into each well of a 24-well tray. Collagen constructs were allowed to polymerize at 37 C for 45 minutes before adding low serum culture media containing DMEM, 2% Fetal Bovine Serum (FBS), 1% penicillin/streptomycin (P/S).
Tension was allowed to build up within the tethered matrix at 37 C and 5% CO2 for 72 hours before a sterile spatula was used to detach each collagen construct from the edges of the culture well. Plates were then immediately scanned on a flat bed laser scanner and then once per hour for the first 12 hours, then daily for a total of 4 days. The surface area of each collagen construct was measured using ImageJ (NIH) and standardized against the baseline surface area measurement to express changes in area as a percentage of original surface area.
Vehicle control treatment solution comprised of DMEM with 2% FBS and 1% penicillin/streptomycin. The gentamicin treatment solution contained DMEM with 2% FBS, 1% penicillin/streptomycin and 1000 μg/ml gentamicin (w/vol) (Sigma-Aldrich, CAT. NO: G1397). The ASA treatment solution contained DMEM with 2% FBS, 1% penicillin/streptomycin and 2000 μg/ml ASA (w/vol) (Sigma-Aldrich, CAT. NO: A5376). The gentamicin-ASA combination treatment solution (Gent+ASA) contained DMEM with 2% FBS, 1% penicillin/streptomycin, 1000 μg/ml gentamicin (w/vol.) and 2000 μg/ml ASA (w/vo).
Culture media was removed from collagen constructs twice daily and replaced with one of the four treatment solutions for a duration of 15 minutes. […]

[4] = test system: HTCFs; assay: Lipid Mediator Secretion Assay II (ASA or APHS with and without gentamicin, LC-MS/MS); assay type: cell-based, human; conditions: inflammatory cytokine induced HTCFs, gentamicin 250 or 500 μg/ml
Protocol: To this end, as before, multiple primary HTCF cell lines were cultured in DMEM w/10% FBS in 6-well culture plates, incubated at 37° C. and 5% CO2, until 90% confluent. The culture media was removed, wells washed with PBS, and then fresh DMEM w/0% FBS was added. After 24 hrs of serum starvation, fresh DMEM w/0% FBS was added, this time containing a physiologically relevant inflammation/wound healing induction mixture (1 ng/ml each of: IL-1b, TNFa, IFNγ, TGFb). After 12 hrs incubation, the induction media was removed, the wells were washed with PBS and fresh DMEM w/0% FBS was added containing one of ten experimental treatments for an incubation period of 48 hrs: 1) non-induced control (NIC: received DMEM w/0% FBS instead of the induction media), and 2) CytoM1+TGFB1 (DMEM w/0% FBS and 1 ng/ml each of: IL-1b, TNFa, IFNγ, TGFb), and 3) CytoM1/TGFB1/Gent250 (DMEM w/0% FBS, 1 ng/ml each of TGFB1, TGFB2, VEGF, CCN2 and 250 μg/ml gentamicin), and 4) CytoM1/TGFB1/Gent500 (DMEM w/0% FBS, 1 ng/ml each of TGFB1, TGFB2, VEGF, CCN2 and 500 μg/ml gentamicin), and 5) CytoM1/TGFB1/ASA500 (DMEM w/0% FBS, 1 ng/ml each of TGFB1, TGFB2, VEGF, CCN2, and 500 μg/ml ASA), and 6) CytoM1/TGFB1/ASA500/Gent250 (DMEM w/0% FBS, 1 ng/ml each of TGFB1, TGFB2, VEGF, CCN2, 500 μg/ml ASA and 250 μg/ml gentamicin), and 7) CytoM1/TGFB1/ASA1000 (DMEM w/0% FBS, 1 ng/ml each of TGFB1, TGFB2, VEGF, CCN2 and 1000 μg/ml ASA), and 8) CytoM1/TGFB1/ASA1000/Gent500 (DMEM w/0% FBS, 1 ng/ml each of TGFB1, TGFB2, VEGF, CCN2, 1000 μg/ml ASA, and 500 μg/ml gentamicin), and 9) CytoM1/TGFB1/APHS12 (DMEM w/0% FBS, 1 ng/ml each of TGFB1, TGFB2, VEGF, CCN2 and 12 μg/ml o-(acetoxyphenyl)hept-2-ynyl sulfide (APHS), and 10) CytoM1/TGFB1/APHS12/Gent250 (DMEM w/0% FBS, 1 ng/ml each of TGFB1, TGFB2, VEGF, CCN2, 12 μg/ml o-(acetoxyphenyl)hept-2-ynyl sulfide (APHS) and 250 μg/ml gentamicin). At 6, 12, 24 and 48 hrs after addition of the experimental treatments, 250 ul of supernatant was removed from each well, replaced with 250 ul of fresh DMEM w/0% FBS, and stored at −80° C. for subsequent LC-MS/MS analysis. After 48 hrs, the wells were washed with ice cold PBS three times and total cellular protein from the HTCF monolayer was collected for quantification and subsequent western blot analyses. The absolute quantity of protein within each culture well's HTCF monolayer was used as a means to standardize the relative secretion of lipid mediators by HTCFs into the culture well's supernatant.
This is a well-established method to determine the relative activity of cyclooxygenase, acetyl-COX2 and lipoxygenase biosynthetic pathways. In brief, the ratios of the integrated areas of the chromatographic peaks corresponding to each analyte and the integrated areas of the peaks corresponding to each analyte's internal standard (with known absolute quantity) are used to determine the relative quantity of each analyte in a given sample. After supernatant sample collection, 250 ul of methanol containing 100 μg of each deuterated internal standard was added. Samples were then vigorously vortexed and centrifuged at 10,000 g for 10 min before loading onto solid-phase extraction cartridges (Strata-X 33 um Polymeric Reversed Phase, 10 mg, Phenomenex 8B-S100-AAK), that were previously activated with 2 ml methanol and rinsed with 2 ml water. […] After washing with 5 ml water, extracts were eluted with 1 ml methanol. Solvent was then evaporated under vacuum in a SpeedVac centrifuge, and the extract was resuspended in 100 ul acetonitrile/water 60:40 (v/v). An aliquot of 20 ul was injected into the LC-MS/MS system for analysis. […] A Sciex Triple Quad 6500+ mass spectrometer with multiple reaction monitoring was used in negative ion mode. The chromatographic profile of the ion count for each m/z transition was monitored, and the area under the peaks (ion intensity vs elution time) was integrated using commercial software (MultiQuant, Sciex).

[5] = test system: αSMA; assay: Cellular response to individual exogenous ASA-triggered lipid mediators (αSMA western blot); assay type: cell-based, human; conditions: 48 hrs
Protocol: Cells were lysed in lysis buffer (PhosphoSafe Extraction Reagent, Novagen) containing a protease inhibitor cocktail (P2714, Sigma-Aldrich). Crude protein lysate was quantified using a Pierce BCA protein assay kit (ThermoFisher, Mississauga, ON) and 10 ug from each sample was resolved using a Novex WedgeWell 4-20% tris-glycine gel (Invitrogen). Using an iBlot Gel Transfer Device (IB1001, Invitrogen), the separated protein was transferred to a nitrocellulose membrane (1B301001, iBlot Transfer Stack, Invitrogen) which was then blocked with 5% (w/v) bovine serum albumin (Sigma-Aldrich) in Tris buffered saline (TBST) for 1 hour at room temperature. The membranes were incubated overnight at 4° C. with primary antibody diluted in TBST containing 5% BSA (w/vol). Primary antibodies used were as follows: collagen 1 (ab138492, Abcam), αSMA (ab5694, Abcam), MMP9 (ab38898, Abcam), PPARγ (sc-7273, SantaCruz Biotechnology), SMAD2/3 (ab63672, Abcam), pSMAD2/3 (ab63399, Abcam) and GAPDH (sc-47724, Santa Cruz Biotechnology, Inc.). After incubation with primary antibodies, the blots were washed and hybridized with 1:3000 (v/v) dilutions of the appropriate goat anti-rabbit or anti-mouse IgG conjugated with horseradish peroxidase ([…], respectively, both from Bio-Rad Laboratories, Inc.). Visualization was accomplished by applying WesternBright Quantum chemiluminescent reagent (Advansta, Inc.), with GAPDH used as a protein loading control. Imaging and relative densiometric quantification was accomplished using a ChemiDoc MP System (Bio-Rad Laboratories, Inc.) connected to Image Lab (Version 6, Bio-Rad Laboratories, Inc.).
From the lipid mediator secretion assays, we see that exposure to ASA or APHS±a PLA2-a results in the generation of significant quantities of pro-resolving products 5-HETE, 11-HETE, 15-HETE and/or 17-OHDHA. The aim of this experiment was to assess the effects (both individually and in combination) of these lipid mediators at mitigating the induction of αSMA by aqueous humor growth factors. To this end, multiple primary HTCF cell lines were cultured in DMEM w/10% FBS in 6-well culture plates, incubated at 37 C and 5% CO2, until 80% confluent. The culture media was removed, wells washed with PBS, and then fresh DMEM w/0% FBS was added. After 24 hrs of serum starvation, one of 14 experimental treatments were applied for 48 hrs: 1) vehicle control (DMEM w/0% FBS), and 2) AHGFs (DMEM w/0% FBS and 2 ng/ml each of TGFB1, TGFB2, VEGF, CCN2), and 3-5) AHGFs/5-HETE (DMEM w/0% FBS, 2 ng/ml each of TGFB1, TGFB2, VEGF, CCN2, and 10, 100, or 1000 nM of 5-hydroxyeicosatetraenoic acid), and 6-8) AHGFs/11-HETE (DMEM w/0% FBS, 2 ng/ml each of TGFB1, TGFB2, VEGF, CCN2, and 10, 100, or 1000 nM of 11-hydroxyeicosatetraenoic acid), and 9-11) AHGFs/15-HETE (DMEM w/0% FBS, 2 ng/ml each of TGFB1, TGFB2, VEGF, CCN2, and 10, 100, or 1000 nM of 15-hydroxyeicosatetraenoic acid), and 12-14) AHGFs/17-OHDHA (DMEM w/0% FBS, 2 ng/ml each of TGFB1, TGFB2, VEGF, CCN2, and 10, 100, or 1000 nM of 17-hydroxy-docosahexaenoic acid). After 48 hrs exposure cellular protein lysate was collected and assessed by western blot with primary antibodies for αSMA and GAPDH, as described previously.

| Molecule | AHGF-induced expression of αSMA ([5]; lipid mediator at 100 nM) | AHGF-induced expression of αSMA ([5]; lipid mediator at 1000 nM) | further results |
| --- | --- | --- | --- |
| gentamicin | – | – | HTCF-mediated collagen contraction [1]: no significant treatment effects found; also recorded: no significant effect on HTCF-mediated collagen contraction; AHGF induced, HTCF-mediated collagen contraction [2]: no statistically significant effect on collagen contraction; HTCF mediated collagen contraction [3]: did not affect collagen contraction until the second day of the four day assay; secretion of PUFA precursors: AA, EPA and DHA [4]: significantly increase the secretion of PUFA precursors |
| CCCCC/C=C\C=C\C(O)C/C=C\C/C=C\CCCC(=O)O (stereo not shown) [11-HETE, 11-hydroxyeicosatetraenoic acid] | – | – | AHGF-induced αSMA expression ([5]; lipid mediator at 10, 100, or 1000 nM): did not significantly affect AHGF-induced αSMA expression |
| CC/C=C\CC(O)/C=C/C=C\C/C=C\C/C=C\C/C=C\CCC(=O)O (stereo not shown) [17-OHDHA, 17-hydroxy-docosahexaenoic acid] | significantly reduced | significantly reduced | – |
| CCCCC[C@H](O)/C=C/C=C\C/C=C\C/C=C\CCCC(=O)O [15-HETE, 15-hydroxyeicosatetraenoic acid] | significantly reduced | – | – |
| CCCCC/C=C\C/C=C\C/C=C\C=C\[C@@H](O)CCCC(=O)O [5-HETE, 5-hydroxyeicosatetraenoic acid] | significantly reduced | significantly reduced | – |
